{"source": "paper PMC8409585", "about": "(The Journal of Clinical Investigation, 2021)", "target": "T1, mitochondrial electron transport chain complex I (ETCC1), NADH ubiquinone oxidoreductase (Bos taurus, UniProt P03887+P17694+P42026)", "T1 construct": "gene MT-ND1"}
{"compound": "C=C(C)[C@@H]1C[C@@]2(C)C(=CC1=O)CC[C@@H](OC(=O)/C(C)=C\\C)[C@@H]2C", "note": "[PT, petasin]", "values": [{"measurement": "IC50", "result": 3.55, "unit": "µM"}]}
